Reference: patent US8697747B2, “Enhancing coagulation or reducing fibrinolysis” (THe UAB Research Foundation, priority 2009, dated 2014)

How the values were obtained:
TAFI deficient plasma = test: CLSM thrombelastography with tPA, TAFI deficient plasma; format: biochemical, human; details: 100 μM CORM-2, tPA 100 IU/mL, median, n=8
Description: (§1) Pooled normal plasma (George King Bio-Medical, Overland Park, Kans.) anticoagulated with sodium citrate was utilized for experimentation. […] Factor XIII (FXIII) deficient plasma anticoagulated with sodium citrate was also obtained from the same vendor.
(§2) Plasma Sample Composition. The final volume for all subsequently described plasma sample mixtures was 359.4 μL. Sample composition consisted of 316 μL of plasma; 10 μL of tissue factor (0.1% final concentration in 0.9% NaCl; Diagnostica Stago, Asnieres, France), 3.6 μL of dimethyl sulfoxide (DMSO) or DMSO with CORM-2 (Sigma-Aldrich, St. Louis, Mo.) or DMSO with inactivated CORM-2 (iCORM-2), 10 μL of tissue-type plasminogen activator (tPA, 580 U/μg, Genentech, Inc., San Francisco, Calif.) diluted with 10 mM potassium phosphate buffer (pH 7.4) for a final activity of 100 IU/mL, and 20 μL of 200 mM CaCl2. […] This concentration of CORM-2 was chosen because the concentration of CO released would be expected to be in the mid to lower ranges used in previously reported ex vivo, in vitro, and cell-based experiments (Motterlini et al. 2002; Megias et al. 2007; Chlopicki et al. 2006; Dong et al. 2008). […] (Motterlini et al. 2005). While CORM-2 decays slowly in DMSO, DMSO was added to the dry compound just prior to placement into the plasma mixture. The specific series of experiments are subsequently presented.
(§3) Assessment of the Effects of CORM-2 on CLSM Parameters in FXIII, PAI-1, TAFI and α2-antiplasmin Deficient Plasmas. These experiments were performed to elucidate the roles played by antifibrinolytic enzymes during CORM-2 mediated modulation of fibrinolysis. Samples of the various deficient plasmas were exposed to 0 or 100 μM of CORM-2 (n=8 per condition). Samples underwent CLSM analyses as subsequently described.
(§4) Clot Lifespan Model Analyses. As described in Example 1, plasma sample mixtures were placed in a disposable cup in a computer-controlled THROMBELASTOGRAPH® hemostasis system (Model 5000, Haemoscope Corp., Niles, Ill.), with addition of CaCl2 as the last step to initiate clotting. Data were collected until clot lysis time occurred. […] As this model involves complete fibrinolysis, TTG is equivalent to ACL, so ACL was not presented as it provides no additional information.
(§5) Statistical Analyses. Data are presented as median (1st, 3rd quartiles). […] Nonlinear and linear analyses and curve fitting of the various CORM-2 concentrations effects on CLSM variables were performed with commercially available software (SigmaPlot 11.0, Systat Software, Inc., San Jose, Calif.). Analyses of the effects of CORM-2 and iCORM-2 on CLSM variables in normal plasma were conducted with Kruskal-Wallis one way analysis of variance on ranks, whereas Mann-Whitney rank sum tests were used to assess the effects of CORM-2 on CLSM variables in the various immunodepleted/congenitally deficient plasma types (SigmaStat 3.1, Systat Software, Inc., San Jose, Calif.). Graphical representation of the data was generated with commercially available software (SigmaPlot 11.0, Systat Software, Inc., San Jose, Calif.; CorelDRAW 12.0, Corel Corporation, Ottawa, Ontario, Canada; Origin 7.5, OriginLab Corp., Northampton, Mass.). A P value of <0.05 was considered significant.

[1] = aqueous solution pH=7.4, 37° C.; cited from earlier work
PAI-1 deficient plasma = test: CLSM thrombelastography with tPA, PAI-1 deficient plasma; format: biochemical, human; details: 100 μM CORM-2, tPA 100 IU/mL, median, n=8
Description: as §1, §2, §3, §4, §5

pooled normal plasma = test: Clot lifespan model (CLSM) thrombelastography with tPA, normal plasma; format: biochemical, human; details: 100 μM
Description: as §1, §2
Concentration-Response Relationships of CORM-2 and iCORM-2 with Clot Lifespan Model (CLSM) Parameters. Normal plasma was exposed to 0, 25, 50, 100 or 200 μM CORM-2 (n=4 per concentration. Additional plasma samples were exposed to 25, 50 or 100 μM iCORM-2 (n=4 per concentration). Samples underwent CLSM analyses as subsequently described.
Comparison of the Effects of CORM-2 and iCORM-2 on CLSM Parameters in Normal Plasma. Given the results of the aforementioned experiments, additional samples of normal plasma were exposed to 0 or 100 μM of CORM-2 or iCORM-2 (n=4 per additional sample condition, n=8 per condition for final analyses). Samples underwent CLSM analyses as subsequently described.
as §4, §5

## [C-]#[O+].[C-]#[O+].[C-]#[O+].[C-]#[O+].[C-]#[O+].[C-]#[O+].[Cl][Ru][Cl].[Cl][Ru][Cl] [CORM-2, tricarbonyldichlororuthenium (II) dimer]
TAFI deficient plasma
  CGT (clot growth time): 410 s
  CLS (clot lifespan): 370 s
  CLT (clot lysis time): 932 s
  MRL (maximum rate of lysis): −1.4 -dynes/cm^2/sec
  MRTG (maximum rate of thrombus generation): 6.1 dynes/cm^2/sec
  TMRL (time to maximum rate of lysis): 612 s
  TMRTG (time to maximum rate of thrombus generation): 175 s
  TTG (total thrombus generation): 142 dynes/cm^2
[1]
  CO released from every mole of CORM-2: 0.75 mol
PAI-1 deficient plasma
  CGT (clot growth time): 500 s
  CLS (clot lifespan): 1565 s
  CLT (clot lysis time): 1070 s
  MRL (maximum rate of lysis): −2.2 -dynes/cm^2/sec
  MRTG (maximum rate of thrombus generation): 9.4 dynes/cm^2/sec
  TMRL (time to maximum rate of lysis): 750 s
  TMRTG (time to maximum rate of thrombus generation): 160 s
  TTG (total thrombus generation): 228 dynes/cm^2
Pooled normal plasma; tPA
  delay of the onset of fibrinolysis vs samples not exposed: 258%
  enhancement of strength of the clot vs samples not exposed: 113%
  enhancement of the velocity of growth vs samples not exposed: 120%
  increase in CGT vs 0 μM CORM-2: 126%
  increase in CLS vs 0 μM CORM-2: 145%
  increase in CLT vs 0 μM CORM-2: 143%
Pooled normal plasma; tPA 100 IU/mL, median, n=8
  CGT (clot growth time): 508 s
  CLS (clot lifespan): 2325 s
  CLT (clot lysis time): 1768 s
  MRL (maximum rate of lysis): −1.9 -dynes/cm^2/sec
  MRTG (maximum rate of thrombus generation): 9.7 dynes/cm^2/sec
  TMRL (time to maximum rate of lysis): 1218 s
  TMRTG (time to maximum rate of thrombus generation): 155 s
  TTG (total thrombus generation): 281 dynes/cm^2
